system: apyrase; test: Screen for apyrase inhibitors (Method 1, in vitro phosphate-release absorbance assay); assay type: biochemical; conditions: inhibitor conc at 1 mM stock, 1 hr room temperature, absorbance 630 nm; rounded average of two assay results
Description: Apyrase inhibitors useful as enhancers of pesticidal activity are assessed using an in vitro assay. The method of Windsor, Bio Techniques 33:1024-1030 (November 2002) was used as follows Screen for Apyrase Inhibitors- 96 well plates were used for the assay: (Greiner bio-one: REF-655901-96 well, PS, F-bottom, Clear, Non-binding) Buffers: • Reaction Buffer: 60 mM Hepes; 3 mM MgCl2, 3 mM CaCl2 and 3 mM ATP (pH 6.5) • Development Buffer A: 2% aqueous ammonium molybdate • Development Buffer B: 11% ascorbic acid in 37.5% TCA in water • Stop buffer C: 2% trisodium citrate in 2% acetic acid solution in water • Add 100 μl of reaction buffer to each well. • Add 10 μl of DMSO (control) or inhibitor/compound or compounds such as […] or orthovanadate to each well. […] A blank cell indicates either <10% observed inhibition or a large difference between repetitions. In certain examples, the lack of observed inhibition is due to a lack of solubility of the compound under assay conditions, rather than a lack of apyrase inhibitory activity.

| Compound | % Inhibition of Apyrase |
| --- | --- |
| O=C(NCCCN1CCCC1=O)c1cccc(S(=O)(=O)Nc2ccc(Br)cc2)c1 [I-46, 3-(N-(4-bromophenyl)sulfamoyl)-N-(3-(2-oxopyrrolidin-1-yl)propyl)benzamide] | 12% |
| CC(=O)Nc1ccc(NC(=O)c2cccc(S(=O)(=O)Nc3ccc(Br)cc3)c2)cc1 [I-47, N-(4-acetamidophenyl)-3-(N-(4-bromophenyl)sulfamoyl)benzamide] | 12% |
| O=C(NCc1ccco1)c1cccc(S(=O)(=O)Nc2ccc(Br)cc2)c1 [I-48, 3-(N-(4-bromophenyl)sulfamoyl)-N-(furan-2-ylmethyl)benzamide] | 11% |
| Cc1ccc([N+](=O)[O-])cc1NC(=O)c1cc(S(=O)(=O)Nc2ccc(Br)cc2)c(Cl)cc1Cl [I-49, 5-(N-(4-bromophenyl)sulfamoyl)-2,4-dichloro-N-(2-methyl-5-nitrophenyl)benzamide] | 11% |
| O=C(Nc1cccc([N+](=O)[O-])c1)c1cccc(S(=O)(=O)NCc2ccccc2)c1 [I-50, 3-(N-benzylsulfamoyl)-N-(3-nitrophenyl)benzamide] | 10% |
| O=C(Nc1cccc([N+](=O)[O-])c1)c1cccc(S(=O)(=O)Nc2cccc(F)c2)c1 [I-51, 3-(N-(3-fluorophenyl)sulfamoyl)-N-(3-nitrophenyl)benzamide] | 10% |
| O=C(Nc1cccc([N+](=O)[O-])c1)c1cc(S(=O)(=O)Nc2ccc(F)cc2)ccc1Cl [I-52, 2-chloro-5-(N-(4-fluorophenyl)sulfamoyl)-N-(3-nitrophenyl)benzamide] | 10% |
| O=C(Nc1ccccc1Cl)c1cccc(S(=O)(=O)Nc2ccc(Cl)cc2)c1 [I-177, N-(2-chlorophenyl)-3-(N-(4-chlorophenyl)sulfamoyl)benzamide] | 69% |
| Cc1cc(C)cc(NC(=O)c2cccc(S(=O)(=O)Nc3ccc4c(c3)OCO4)c2)c1 [I-179, 3-(N-(benzo[d][1,3]dioxol-5-yl)sulfamoyl)-N-(3,5-dimethylphenyl)benzamide] | 72% |
| O=C(Nc1cccc(S(=O)(=O)N2CCCC2)c1)c1ccccc1NS(=O)(=O)c1cccc(C(F)(F)F)c1 [I-180, N-(3-(pyrrolidin-1-ylsulfonyl)phenyl)-2-((3-(trifluoromethyl)phenyl)sulfonamido) benzamide] | 75% |
| O=C(Nc1ccc(OC(F)F)c(Cl)c1)c1cccc(S(=O)(=O)Nc2ccc3c(c2)OCO3)c1 [I-181, 3-(N-(benzo[d][1,3]dioxol-5-yl)sulfamoyl)-N-(3-chloro-4-(difluoromethoxy)phenyl)benzamide] | 77% |
| Cc1cc(C(=O)Nc2cccc(S(=O)(=O)Nc3ccc(Br)cc3)c2)ccc1[N+](=O)[O-] [I-182, N-(3-(N-(4-bromophenyl)sulfamoyl)phenyl)-3-methyl-4-nitrobenzamide] | 68% |
| Cc1cc(F)ccc1NC(=O)c1ccc(S(=O)(=O)Nc2cccc(C(F)(F)F)c2)cc1 [I-183, N-(4-fluoro-2-methylphenyl)-4-(N-(3-(trifluoromethyl)phenyl)sulfamoyl)benzamide] | 67% |
| Cc1ccc(C(=O)Nc2cccc(NS(=O)(=O)c3ccccc3)c2)cc1C [I-184, 3,4-dimethyl-N-(3-(phenylsulfonamido)phenyl)benzamide] | 81% |
| N#Cc1cccc(NC(=O)c2ccc(S(=O)(=O)Nc3ccc(Cl)cc3)cc2)c1 [I-185, 4-(N-(4-chlorophenyl)sulfamoyl)-N-(3-cyanophenyl)benzamide] | 77% |
| N#Cc1ccc(NC(=O)c2cccc(S(=O)(=O)Nc3ccc4c(c3)OCO4)c2)cc1 [I-187, 3-(N-(benzo[d][1,3]dioxol-5-yl)sulfamoyl)-N-(4-cyanophenyl)benzamide] | 67% |
| O=C(c1cccc(S(=O)(=O)Nc2ccc3c(c2)OCO3)c1)N1CCc2ccccc21 [I-188, N-(benzo[d][1,3]dioxol-5-yl)-3-(indoline-1-carbonyl)benzenesulfonamide] | 73% |
| O=C(Nc1ccc(Br)cc1)c1cccc(S(=O)(=O)N2CCc3ccccc32)c1 [I-189, N-(4-bromophenyl)-3-(indolin-1-ylsulfonyl)benzamide] | 70% |
| O=C(Nc1ccc(F)c(Cl)c1)c1cccc(S(=O)(=O)Nc2ccc3c(c2)OCO3)c1 [I-190, 3-(N-(benzo[d][1,3]dioxol-5-yl)sulfamoyl)-N-(3-chloro-4-fluorophenyl)benzamide] | 73% |
| O=C(Nc1ccc(C(F)(F)F)cc1)c1cccc(S(=O)(=O)Nc2ccc3c(c2)OCO3)c1 [I-192, 3-(N-(benzo[d][1,3]dioxol-5-yl)sulfamoyl)-N-(4-(trifluoromethyl)phenyl)benzamide] | 72% |

| Compound | % Inhibition of Apyrase |
| --- | --- |
| O=C(Nc1ccc(F)cc1)c1ccc(S(=O)(=O)Nc2cccc(C(F)(F)F)c2)cc1 [I-193, N-(4-fluorophenyl)-4-(N-(3-(trifluoromethyl)phenyl)sulfamoyl)benzamide] | 74% |
| Cc1ccc(C(=O)Nc2cccc(S(=O)(=O)Nc3ccc(Br)cc3)c2)cc1 [I-194, N-(3-(N-(4-bromophenyl)sulfamoyl)phenyl)-4-methylbenzamide] | 74% |
| O=C(CNC(=O)c1ccc(Br)cc1)Nc1cccc(S(=O)(=O)Nc2ccc(Br)cc2)c1 [I-195, 4-bromo-N-(2-((3-(N-(4-bromophenyl)sulfamoyl)phenyl)amino)-2-oxoethyl)benzamide] | 70% |
| N#Cc1cccc(S(=O)(=O)Nc2cccc(C(=O)Nc3cccc(C(F)(F)F)c3)c2)c1 [I-196, 3-((3-cyanophenyl)sulfonamido)-N-(3-(trifluoromethyl)phenyl)benzamide] | 74% |
| O=C(Nc1cccc(Cl)c1)c1cccc(S(=O)(=O)Nc2ccc3c(c2)OCO3)c1 [I-197, 3-(N-(benzo[d][1,3]dioxol-5-yl)sulfamoyl)-N-(3-chlorophenyl)benzamide] | 70% |
| O=C(Nc1cccc(S(=O)(=O)Nc2ccc(Br)cc2)c1)c1ccc2ncsc2c1 [I-199, N-(3-(N-(4-bromophenyl)sulfamoyl)phenyl)benzo[d]thiazole-6-carboxamide] | 66% |
| O=C(Nc1ccc(OC(F)(F)F)cc1)c1cccc(S(=O)(=O)Nc2ccc3c(c2)OCO3)c1 [I-200, 3-(N-(benzo[d][1,3]dioxol-5-yl)sulfamoyl)-N-(4-(trifluoromethoxy)phenyl)benzamide] | 78% |
| N#Cc1cccc(NC(=O)c2ccc(S(=O)(=O)Nc3ccccc3Cl)cc2)c1 [I-202, 4-(N-(2-chlorophenyl)sulfamoyl)-N-(3-cyanophenyl)benzamide] | 78% |
| O=C(Nc1ccc(F)c([N+](=O)[O-])c1)c1ccc(S(=O)(=O)Nc2ccc(Cl)cc2)cc1 [I-203, 4-(N-(4-chlorophenyl)sulfamoyl)-N-(4-fluoro-3-nitrophenyl)benzamide] | 72% |
| Cc1ccc(NS(=O)(=O)c2ccc(C(=O)Nc3cccc(S(=O)(=O)N4CCCC4)c3)cc2)cc1 [I-204, N-(3-(pyrrolidin-1-ylsulfonyl)phenyl)-4-(N-(p-tolyl)sulfamoyl)benzamide] | 69% |
| O=C(CNC(=O)c1ccccc1F)Nc1cccc(S(=O)(=O)Nc2ccc(Br)cc2)c1 [I-205, N-(2-((3-(N-(4-bromophenyl)sulfamoyl)phenyl)amino)-2-oxoethyl)-2-fluorobenzamide] | 74% |
| Cc1cccc(NS(=O)(=O)c2ccc(C(=O)Nc3cccc(C#N)c3)cc2)c1C [I-206, N-(3-cyanophenyl)-4-(N-(2,3-dimethylphenyl)sulfamoyl)benzamide] | 74% |
| O=C(Nc1cccc(S(=O)(=O)Nc2ccc(Br)cc2)c1)c1ccsc1 [I-207, N-(3-(N-(4-bromophenyl)sulfamoyl)phenyl)thiophene-3-carboxamide] | 74% |
| O=C(c1ccc(S(=O)(=O)Nc2ccc(Cl)cc2)cc1)N1CCc2ccccc21 [I-208, N-(4-chlorophenyl)-4-(indoline-1-carbonyl)benzenesulfonamide] | 66% |
| N#Cc1cc(C(=O)Nc2cccc(NS(=O)(=O)c3ccccc3)c2)ccc1Cl [I-210, 4-chloro-3-cyano-N-(3-(phenylsulfonamido)phenyl)benzamide] | 73% |
| CCOc1ccc(NS(=O)(=O)c2ccc(C(=O)Nc3cccc(C#N)c3)cc2)cc1 [I-211, N-(3-cyanophenyl)-4-(N-(4-ethoxyphenyl)sulfamoyl)benzamide] | 76% |
| O=C(Nc1cccc(NS(=O)(=O)c2ccc(Cl)cc2)c1)c1cc(F)ccc1F [I-212, N-(3-((4-chlorophenyl)sulfonamido)phenyl)-2,5-difluorobenzamide] | 69% |
| Cc1cccc(NC(=O)c2cccc(S(=O)(=O)N3CCc4ccccc43)c2)c1 [I-214, 3-(indolin-1-ylsulfonyl)-N-(m-tolyl)benzamide] | 71% |
| CN(c1ccccc1)S(=O)(=O)c1ccccc1C(=O)Nc1ccc(S(=O)(=O)N2CCCC2)cc1 [I-215, 2-(N-methyl-N-phenylsulfamoyl)-N-(4-(pyrrolidin-1-ylsulfonyl)phenyl)benzamide] | 58% |
| O=C(Nc1ccc(F)cc1)c1cccc(S(=O)(=O)Nc2ccc3c(c2)OCO3)c1 [I-216, 3-(N-(benzo[d][1,3]dioxol-5-yl)sulfamoyl)-N-(4-fluorophenyl)benzamide] | 71% |

From patent publication US12685312B2, “Sulfonamide apyrase inhibitors” (Texas Crop Science, Inc., priority 2022, dated 2026)
